Assay results taken from publication PMC5848165 (Toxins, 2018).
Residues, ends and D or L forms follow the SMILES beside them.

What was measured:
Nav1.2 = assay: Whole-cell patch clamp, Nav1.2 in HEK293 cells; assay type: cell-based, rat; settings: 1 µM, −10 mV from −80 mV
Excerpt: Nine sodium channel subtypes have been identified and classified as TTX-S (Nav1.1–Nav1.4, Nav1.6, and Nav1.7) or TTX-R types (Nav1.5, Nav1.8, and Nav1.9). […] However, the subtype selectivity of JZTX-34 on the subtype of sodium channel is still unknown. In this work, effects of JZTX-34 on VGSC subtypes (Nav1.1–Nav1.8) were examined. Nav1.1–Nav1.7 were transfected into HEK293 cells and Nav1.8 currents were expressed in ND cells. Inward sodium currents were elicited by a 50 ms depolarizing potential to −10 mV from a holding potential of −80 mV every 5 s. […] No effects on other sodium channel subtypes were found (Nav1.1, Nav1.2, Nav1.4–Nav1.6, and Nav1.8) (Figure S2). […]
(§1) The HEK293T cells were maintained in standard culture conditions (5% CO2 and 37 °C). […] After culturing for 36–72 h, cells with obvious green fluorescence were selected for sodium currents recordings the internal solution for sodium currents recording that contained (in mM) 140 CsF, 5 NaCl, 10 HEPES, 3 Na2-ATP, and 10 EGTA. […]
(§2) Sodium currents were recorded from DRG, HEK293, and ND cells by the whole-cell patch-clamp technique at 25 °C. […] Experiments date were acquired from whole-cell Axon 700B patch clamp amplifier (Molecular Devices, Sunnyvale, CA, USA) and analyzed by the program Clampfit10.0 (Molecular Devices, Sunnyvale, CA, USA) and Sigmaplot. […]

Nav1.5 R800D = target: T1, Nav1.5 R800D (Rattus norvegicus, UniProt P15389, R801D); assay: Whole-cell patch clamp, Nav1.5 mutant R800D in HEK293 cells; assay type: cell-based; settings: 1 µM
T1 construct: expressed in transfected cells; host or cells: HEK293 (HEK293T) cells, transient
Excerpt: We next investigated the critical residues in DIIS3-S4 linker that determined the sensitivity of Nav1.7 to JZTX-34. An acidic residue, D816, is present in the DIIS3-S4 linker of Nav1.7, while the corresponding residue in Nav1.5 is an alkaline amino acid, R800. To determine whether the acidic residue D816 occupies an important role in toxin binding, we constructed two mutants: D816R of Nav1.7 and R800D of Nav1.5. One µM of JZTX-34 inhibited 54.3 ± 5.2% of WT Nav1.7 currents (Figure 4A), but only 16.8 ± 4.6% currents of D816R were inhibited at the same concentration (Figure 4B). […]
as §1, §2
Data from Axon 700B patch clamp were analyzed by Clampfit10.0 (Molecular Devices, Sunnyvale, CA, USA). […]

T1 sequence (Q07699 19-218): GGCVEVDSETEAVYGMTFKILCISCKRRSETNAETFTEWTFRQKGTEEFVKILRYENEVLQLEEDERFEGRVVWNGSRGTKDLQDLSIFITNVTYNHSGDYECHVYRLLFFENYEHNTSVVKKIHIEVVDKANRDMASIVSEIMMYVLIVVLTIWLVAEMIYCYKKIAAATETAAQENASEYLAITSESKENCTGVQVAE
T1 sequence (P15389 whole entry R801D): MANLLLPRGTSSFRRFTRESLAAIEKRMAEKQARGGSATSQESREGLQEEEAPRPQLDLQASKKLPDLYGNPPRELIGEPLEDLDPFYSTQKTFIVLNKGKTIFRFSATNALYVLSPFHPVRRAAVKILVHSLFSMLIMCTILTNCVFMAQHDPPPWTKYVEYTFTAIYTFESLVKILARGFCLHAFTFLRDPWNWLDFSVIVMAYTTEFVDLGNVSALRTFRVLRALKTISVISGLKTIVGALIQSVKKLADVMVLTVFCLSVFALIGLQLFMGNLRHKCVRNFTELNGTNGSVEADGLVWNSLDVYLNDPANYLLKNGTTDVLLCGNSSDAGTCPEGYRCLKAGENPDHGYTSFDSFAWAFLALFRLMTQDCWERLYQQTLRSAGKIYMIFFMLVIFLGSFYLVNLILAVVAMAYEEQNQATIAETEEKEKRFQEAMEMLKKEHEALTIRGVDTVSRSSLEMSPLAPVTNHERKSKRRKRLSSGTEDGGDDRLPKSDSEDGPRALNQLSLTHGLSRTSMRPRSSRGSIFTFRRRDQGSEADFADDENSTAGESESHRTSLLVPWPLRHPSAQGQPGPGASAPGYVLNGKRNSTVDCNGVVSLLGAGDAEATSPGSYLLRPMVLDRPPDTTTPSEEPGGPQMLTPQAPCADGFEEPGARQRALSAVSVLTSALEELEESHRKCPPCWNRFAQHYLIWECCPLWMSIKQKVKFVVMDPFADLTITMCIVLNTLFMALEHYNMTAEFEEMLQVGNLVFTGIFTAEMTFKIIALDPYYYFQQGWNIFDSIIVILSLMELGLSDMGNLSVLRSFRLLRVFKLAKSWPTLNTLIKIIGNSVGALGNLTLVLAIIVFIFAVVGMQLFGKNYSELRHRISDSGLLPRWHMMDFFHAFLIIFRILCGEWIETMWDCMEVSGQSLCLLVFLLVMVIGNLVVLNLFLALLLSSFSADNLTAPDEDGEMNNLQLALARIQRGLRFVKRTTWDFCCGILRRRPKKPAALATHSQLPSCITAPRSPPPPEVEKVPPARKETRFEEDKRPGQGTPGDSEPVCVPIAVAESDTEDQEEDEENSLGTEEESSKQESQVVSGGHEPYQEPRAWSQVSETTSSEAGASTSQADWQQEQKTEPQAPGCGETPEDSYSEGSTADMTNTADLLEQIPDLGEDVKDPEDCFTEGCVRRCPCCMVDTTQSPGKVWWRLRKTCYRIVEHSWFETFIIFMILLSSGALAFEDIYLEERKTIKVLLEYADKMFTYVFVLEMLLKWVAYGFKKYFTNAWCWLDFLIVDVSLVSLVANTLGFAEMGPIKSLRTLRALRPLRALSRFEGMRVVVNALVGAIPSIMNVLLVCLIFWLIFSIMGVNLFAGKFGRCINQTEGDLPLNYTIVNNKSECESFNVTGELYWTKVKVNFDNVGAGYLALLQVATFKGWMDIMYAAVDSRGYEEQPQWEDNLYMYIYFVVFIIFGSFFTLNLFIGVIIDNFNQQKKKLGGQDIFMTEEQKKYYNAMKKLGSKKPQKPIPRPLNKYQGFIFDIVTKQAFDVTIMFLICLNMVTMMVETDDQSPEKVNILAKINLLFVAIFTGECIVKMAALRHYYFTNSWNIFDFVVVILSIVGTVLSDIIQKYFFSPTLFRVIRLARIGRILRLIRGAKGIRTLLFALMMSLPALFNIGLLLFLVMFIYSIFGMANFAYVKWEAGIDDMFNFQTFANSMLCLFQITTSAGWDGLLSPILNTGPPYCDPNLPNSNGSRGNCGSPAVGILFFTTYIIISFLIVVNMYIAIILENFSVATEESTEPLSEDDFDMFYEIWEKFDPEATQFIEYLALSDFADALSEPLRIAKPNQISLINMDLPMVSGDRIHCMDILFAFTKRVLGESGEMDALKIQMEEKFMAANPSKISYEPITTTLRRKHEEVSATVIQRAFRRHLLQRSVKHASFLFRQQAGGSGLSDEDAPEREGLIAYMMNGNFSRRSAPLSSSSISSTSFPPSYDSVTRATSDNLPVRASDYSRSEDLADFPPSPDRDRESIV

## CC(C)C[C@@H]1NC(=O)[C@H](Cc2c[nH]c3ccccc23)NC(=O)[C@H](CCC(=O)O)NC(=O)[C@H](CCCNC(=N)N)NC(=O)[C@@H](NC(=O)[C@H](C)N)CSSC[C@@H]2NC(=O)[C@@H]3CSSC[C@@H](C(=O)N[C@H](C(=O)N[C@@H](Cc4c[nH]c5ccccc45)C(=O)N[C@@H](CC(=O)O)C(=O)N[C@@H](Cc4c[nH]c5ccccc45)C(=O)N[C@H](C(=O)N[C@H](C(=O)O)C(C)C)[C@@H](C)O)C(C)C)NC(=O)[C@H](Cc4c[nH]cn4)NC(=O)[C@H](Cc4ccc(O)cc4)NC(=O)[C@@H]4CCCN4C(=O)[C@H](Cc4c[nH]c5ccccc45)NC(=O)[C@H](CCCCN)NC(=O)[C@H](CCCCN)NC(=O)[C@H](CCCNC(=N)N)NC(=O)[C@H](CSSC[C@H](NC(=O)CNC(=O)CNC1=O)C(=O)N[C@@H](CO)C(=O)N[C@@H](CCCCN)C(=O)N[C@@H](CC(=O)O)C(=O)N[C@@H](C)C(=O)N[C@@H](CC(=O)O)C(=O)N3)NC(=O)[C@H](CCC(=O)O)NC(=O)[C@H](CC(C)C)NC(=O)[C@H](Cc1c[nH]cn1)NC(=O)[C@H](C)NC2=O [JZTX-34, Jingzhaotoxin-34] (HELM PEPTIDE1{A.C.R.E.W.L.G.G.C.S.K.D.A.D.C.C.A.H.L.E.C.R.K.K.W.P.Y.H.C.V.W.D.W.T.V}$PEPTIDE1,PEPTIDE1,2:R3-16:R3|PEPTIDE1,PEPTIDE1,9:R3-21:R3|PEPTIDE1,PEPTIDE1,15:R3-29:R3$$$V2.0; N-terminus and C-terminus assumed)
Nav1.2
  effect on Nav1.2 currents: No effects
Nav1.5 R800D
  inhibition of Nav1.5 R800D currents: obviously inhibited
